Bridge positions count the residues as written; N and C are the ends. Square brackets hold non-standard residues; d marks the D form. Peptide text beside a SMILES is read from it. I, II: the chains in the order shown. Dap = NC[C@H](N)C(=O)O; Ahx = NCCCCCC(=O)O
What was measured:
[1] = system: TNF-α production by dTHP-1 macrophages stimulated with LPS (E. coli O111:B4); assay: Endotoxin neutralization, LPS-stimulated macrophages; format: cell-based, human; details: LPS 5 ng/mL with 1 or 2 µM peptide, 4 h, serum-free RPMI, ELISA, versus NT
Protocol: (§1) The endotoxin-neutralizing capacity of the peptides was assessed by measuring tumor necrosis factor-alpha (TNF-α) production by dTHP-1 macrophages. dTHP-1 macrophages were stimulated with either lipopolysaccharide (LPS; E. coli O111:B4; 5 ng/mL, Sigma-Aldrich) or UV-inactivated S. aureus JAR060131 (MOI 2; as described in Section 5.2), in the presence or absence of one or 2 µM peptides. Cells were cultured in serum-free RPMI and incubated for 4 h at 37 °C with 5% CO2. Positive controls consisted of cells stimulated with LPS or UV-S. aureus without peptide treatment (no treatment, NT), and unstimulated cells served as negative controls. After stimulation, cell supernatants were collected, and cytokine levels of TNF-α were quantified using human ELISA kits (R&D Systems, USA) according to the manufacturer’s instructions. Each condition was tested in triplicate.

[2] = system: primary human venous endothelial cells (HUVECs); assay: In vitro angiogenesis (tube formation) assay; format: cell-based; details: 4 h; for Number of tubular networks formed: 1 µM peptide, Matrigel, versus untreated control
Protocol: Primary human venous endothelial cells (HUVECs; CSC 2V0) were used to evaluate the in vitro angiogenic potential of peptides using a tube formation assay, adapted from Arnaoutova and Kleinman ([Arnaoutova and Kleinman, 2010]). Cells were cultured in low-serum endothelial cell growth medium 2 (2% v/v; Promo Cell). Briefly, 96-well plates were coated with 50 µL/well of phenol red-free, growth factor-reduced basement membrane matrix (Matrigel; Corning), and incubated at 37 °C for 1 h to allow gelation. […] Then, 100 µL of cell suspension (1.5 × 10^4 cells/well) was added to the Matrigel-coated wells in triplicate and incubated at 37 °C, 5% CO2 for 8 h. Tube formation was monitored using the IncuCyte S3 live-cell imaging system (Sartorius) with bright-field microscopy. Images were captured hourly, and the 4-h time point (corresponding to optimal tube formation) was used for analysis. The number of capillary-like structures was quantified using the “Angiogenesis Analyzer” plugin in ImageJ ([Carpentier et al., 2020]). Each peptide condition was tested in triplicate and repeated three times using different Matrigel batches to account for batch-to-batch variability.

[3] = system: TNF-α production by dTHP-1 macrophages stimulated with UV-inactivated S. aureus JAR060131; assay: Endotoxin neutralization, UV-inactivated S. aureus-stimulated macrophages; format: cell-based; details: MOI 2 with 1 or 2 µM peptide, 4 h, ELISA, versus NT
Protocol: as §1

[4] = system: human skin fibroblast cells (BJ); assay: Cytotoxicity (WST-1 and LDH); format: cell-based
Protocol: (§2) Cells (5 × 10^5 cells/mL) were seeded in 96-well plates (100 μL/well; Thermo Scientific) and allowed to adhere for 24 h. After adhesion, monolayers were exposed to two-fold serial dilutions of the tetrameric and reference peptides (final concentrations: 60–0.05 µM) in fresh DMEM containing 2% (v/v) FBS, and incubated for 24 h at 37 °C in a humidified 5% CO2 atmosphere. Cell viability was assessed using the water-soluble tetrazolium salt (WST-1; Roche) assay, and membrane integrity was measured using the lactate dehydrogenase (LDH) release assay (Abcam), following manufacturer instructions. Absorbance was measured using the Synergy H1 microplate reader (Biotek). Results are expressed as percentages relative to untreated control (for WST-1) and positive lysis control (for LDH) and all experiments were performed in triplicate.

[5] = system: HaCaT human keratinocytes; assay: Cytotoxicity (WST-1 and LDH); format: cell-based
Protocol: as §2

S. aureus JAR060131 = assay: Bactericidal (time-kill) kinetics; format: cell-based, Staphylococcus aureus; details: for Time to complete bacterial eradication: all tested concentrations (0.94, 1.88, 3.75 µM); for Log reduction in CFU: within 5 min at 3.75 µM
Protocol: Time-kill kinetics were evaluated against S. aureus JAR060131 and A. baumannii RUH875. Mid-logarithmic phase bacterial cultures were diluted to a final concentration of 1 × 10^6 CFU/mL in PBS. Bacteria were incubated with 0.5-, 2-, and 4-fold the LC99.9. Assays were conducted in polypropylene tubes (Micronics) with a total volume of 500 µL. Control samples consisted of bacteria incubated in PBS alone. At 1, 5, 30, and 120 min, 50 µL samples were collected and immediately added to 50 µL of 0.05% (v/v) sodium polyanethol sulfonate (SPS; Sigma-Aldrich) in PBS to neutralize residual peptide activity ([Dankert et al., 1995]). Viable bacterial counts were determined by plating 10 µL of serial 10-fold dilutions onto BA plates. Colonies were counted after 24 h of incubation at 37 °C. All conditions were performed in triplicate.

[6] = system: S. aureus LUH14616 (MRSA); assay: Ex vivo human skin wound infection model; set-up: species or system Staphylococcus aureus
From the text: Human skin from 3 donors was obtained via the Residual Tissue Biobank of the Red Cross Hospital (Beverwijk, Netherlands). The use of these coded, post-operative residual tissue samples was approved by patients through the informed opt-out-plus protocol of the Red Cross Hospital Skin ([Code-of-Conduct-for-Health-Research, 2022]) and processed for an ex vivo wound infection model as described ([Dijksteel et al., 2020]). The Wounded skin grafts were sectioned into approximately 1 cm^2 samples using a sterile scalpel and were decontaminated by immersion in 70% ethanol for 30 min, followed by three PBS washes. Samples were placed dermis-down and wound-side-up on stainless steel grids with central indentations, positioned in 12-well plates, and cultured at the air–liquid interface in DMEM at 37 °C and 5% CO2. To confine reagents to the wound area, a resin barrier (OpalDam; Ultradent) was applied to the wounded area and polymerized using a hand-held UV light (Valo X) for 10 s. The wounds were then topically infected with 10 µL of S. aureus LUH14616 suspension of 1 × 10^7 CFU/mL (final dose: 1 × 10^5 CFU/graft) in PBS for 1 h, followed by topical application of 10 µL of peptide solution for 4 h. Chlorhexidine (0.5% (v/v) in 70% ethanol; Entick B.V.) and PBS were used as positive and negative controls, respectively. After treatment, tissue samples were transferred to polypropylene vials containing 1 mL PBS supplemented with 0.025% (v/v) SPS and a 7 mm stainless steel bead. Homogenization was performed using a MagnaLyser System (Roche) with three 30-s cycles at 7,000 rpm, with 30 s of cooling on ice between cycles. Homogenates were 10-fold serially diluted in PBS, and 100 µL aliquots were plated on BA plates. CFUs were enumerated after overnight incubation at 37 °C.

[7] = 20 µM and 200 µM topical, 1 h infection, 4 h treatment, versus PBS (Figure 4B)

Row | Compound | Reduction of LPS-induced TNFα levels [1] | Number of tubular networks formed [2] | Concentration at which tube formation peaked ([2]; concentration series 0.5–3 µM) | Tube formation at 3 µM ([2]; concentration series 0.5–3 µM) | Reduction of TNFα production induced by UV-inactivated S. aureus [3] | Cytotoxicity threshold (tolerance), WST-1 and LDH [4] | Cytotoxicity, LDH leakage [4] | Cytotoxicity, Metabolic activity [4] | Cytotoxicity threshold (tolerance), WST-1 and LDH [5] | Cytotoxicity, LDH leakage [5] | Cytotoxicity, Metabolic activity [5] | Time to complete bacterial eradication (S. aureus JAR060131) | Log reduction in CFU (S. aureus JAR060131) | Reduction of bacterial load (CFU counts) [6, 7] | Reduction of bacterial load after different infection durations ([6]; 200 µM for 4 h, started 0.5, 1 or 2 h post-infection (Figure 4D)) | Reduction of bacterial load (CFU counts) ([6]; 200 µM topical, 4 h treatment, versus PBS (Figure 4B), p < 0.05) | Reduction of bacterial load (CFU counts) ([6]; 200 µM topical, 4 h treatment, versus untreated control (Figure 4C), p < 0.001) | Effective bactericidal concentration ([6]; ex vivo wounded human skin, 4 h treatment)
1 | N=C(N)NCCC[C@H](NC(=O)[C@H](Cc1c[nH]c2ccccc12)NC(=O)[C@H](CCC(N)=O)NC(=O)[C@H](Cc1c[nH]c2ccccc12)NC(=O)[C@H](CCCNC(=N)N)NC(=O)[C@@H](N)CCCNC(=N)N)C(=O)NC[C@H](NC(=O)[C@H](CCCNC(=N)N)NC(=O)[C@H](Cc1c[nH]c2ccccc12)NC(=O)[C@H](CCC(N)=O)NC(=O)[C@H](Cc1c[nH]c2ccccc12)NC(=O)[C@H](CCCNC(=N)N)NC(=O)[C@@H](N)CCCNC(=N)N)C(=O)NCCCCCC(=O)N[C@@H](CSSC[C@H](NC(=O)CCCCCNC(=O)[C@H](CNC(=O)[C@H](CCCNC(=N)N)NC(=O)[C@H](Cc1c[nH]c2ccccc12)NC(=O)[C@H](CCC(N)=O)NC(=O)[C@H](Cc1c[nH]c2ccccc12)NC(=O)[C@H](CCCNC(=N)N)NC(=O)[C@@H](N)CCCNC(=N)N)NC(=O)[C@H](CCCNC(=N)N)NC(=O)[C@H](Cc1c[nH]c2ccccc12)NC(=O)[C@H](CCC(N)=O)NC(=O)[C@H](Cc1c[nH]c2ccccc12)NC(=O)[C@H](CCCNC(=N)N)NC(=O)[C@@H](N)CCCNC(=N)N)C(N)=O)C(N)=O [LBT-1] (I: H-RRWQWR[Dap][Ahx]C-NH2 / II: H-RRWQWR[Dap][Ahx]C-NH2 / III: H-RRWQWR / IV: H-RRWQWR; amide I:7-III:C, II:7-IV:C; disulfide I:9-II:9; N-terminus and C-terminus assumed) | effectively neutralize | significantly increasing the number of networks | 2 µM | declined | not observed | 7.5 to 15 µM | 7.5 µM | 15 µM | 15 µM | 15 µM | 15 µM | up to 120 min | > 3 log | dose-dependent reduction | significantly reduced bacterial load in all groups | significant decrease | significantly reduced bacterial load | 200 µM
2 | N=C(N)NCCC[C@H](NC(=O)[C@H](Cc1c[nH]c2ccccc12)NC(=O)[C@H](CCC(N)=O)NC(=O)[C@H](Cc1c[nH]c2ccccc12)NC(=O)[C@H](CCCNC(=N)N)NC(=O)[C@@H](N)CCCNC(=N)N)C(=O)NCCCC[C@H](NC(=O)[C@H](CCCNC(=N)N)NC(=O)[C@H](Cc1c[nH]c2ccccc12)NC(=O)[C@H](CCC(N)=O)NC(=O)[C@H](Cc1c[nH]c2ccccc12)NC(=O)[C@H](CCCNC(=N)N)NC(=O)[C@@H](N)CCCNC(=N)N)C(=O)NCCCCCC(=O)N[C@@H](CSSC[C@H](NC(=O)CCCCCNC(=O)[C@H](CCCCNC(=O)[C@H](CCCNC(=N)N)NC(=O)[C@H](Cc1c[nH]c2ccccc12)NC(=O)[C@H](CCC(N)=O)NC(=O)[C@H](Cc1c[nH]c2ccccc12)NC(=O)[C@H](CCCNC(=N)N)NC(=O)[C@@H](N)CCCNC(=N)N)NC(=O)[C@H](CCCNC(=N)N)NC(=O)[C@H](Cc1c[nH]c2ccccc12)NC(=O)[C@H](CCC(N)=O)NC(=O)[C@H](Cc1c[nH]c2ccccc12)NC(=O)[C@H](CCCNC(=N)N)NC(=O)[C@@H](N)CCCNC(=N)N)C(N)=O)C(N)=O [LBT] (I: H-RRWQWRK[Ahx]C-NH2 / II: H-RRWQWRK[Ahx]C-NH2 / III: H-RRWQWR / IV: H-RRWQWR; amide I:7-III:C, II:7-IV:C; disulfide I:9-II:9; N-terminus and C-terminus assumed) | effectively neutralize | enhanced tube formation | – | – | not observed | – | 15 µM | 30 µM | – | 30 µM | 30 µM | up to 120 min | > 3 log | minimal and non-significant reductions | – | – | – | –
